In article PMC5681660, “Reduced hepatitis B and D viral entry using clinically applied drugs as novel inhibitors of the bile acid transporter NTCP” (Scientific Reports, 2017):
Values joined by “and” are separate entries in the source; they are usually repeats but may differ in a detail not shown here. Equal values may be shown once. “Also recorded” adds a separate entry of the source.

Legend:
HDV = HDV infection of HepaRG cells (HDAg immunofluorescence); format: cell-based, hepatitis delta virus; conditions: HDAg positive cells, day 5; concentration-dependent
mouse NTCP = target: T1, mouse NTCP (Mus musculus, UniProt O08705); test: Taurocholate uptake in U2OS cells transiently transfected with mouse NTCP; format: cell-based; conditions: at the calculated IC50 value for hNTCP
T1 construct: expressed in transfected cells; host or cells: U2OS (transient transfection, PEI)
T1 sequence (O08705 1-362): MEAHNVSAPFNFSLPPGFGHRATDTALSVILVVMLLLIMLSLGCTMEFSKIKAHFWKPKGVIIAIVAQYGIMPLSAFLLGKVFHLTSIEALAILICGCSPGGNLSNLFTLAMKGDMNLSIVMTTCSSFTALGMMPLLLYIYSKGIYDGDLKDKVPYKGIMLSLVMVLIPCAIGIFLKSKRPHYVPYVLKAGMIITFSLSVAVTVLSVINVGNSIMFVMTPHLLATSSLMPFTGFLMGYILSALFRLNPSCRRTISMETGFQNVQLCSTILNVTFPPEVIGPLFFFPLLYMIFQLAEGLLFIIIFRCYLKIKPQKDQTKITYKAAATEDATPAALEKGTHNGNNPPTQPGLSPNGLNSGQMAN
Method: (§1) U2OS and MDCK cells were grown in Dulbecco’s modified Eagle’s medium (DMEM, Sigma-Aldrich), supplemented with 10% FCS (Gibco), 1% L-glutamine (Lonza), and 1% penicillin/streptomycin (Lonza). […] Transient transfection of U2OS cells with mouse NTCP (mNTCP) was done with PEI reagent (Brunschwig, Basel, Switzerland). Shortly, U2OS cells were seeded one day prior to transfection in 24-well plates. On the day of transfection, 0.5 µg DNA was mixed with 100 µl unsupplemented DMEM and 3 µg/µl PEI. After 10–15 minute incubation at RT, 20 µl of the transfection mix was added to each 24-well. Transfected cells were used in further experiments 48–72 hours later. Cell lines were passaged twice a week at a confluence of 80%, and incubated in a humidified atmosphere of 37 °C + 5% CO2.
(§2) For MDCK or MDCK-hASBT cells 70.000 cells/well were plated in 24-well plates, followed by 24 hours 10 mM sodium butyrate (Sigma-Aldrich) stimulation the next day. Cells were used in the inhibition studies 24 hours (U2OS cell lines) or 48 hours (MDCK cell lines) later. Inhibition studies with mNTCP transiently transfected cells were conducted 48–72 hours after transfection.
(§3) Medium was aspirated from the wells and cells were washed once with 250 µL uptake buffer. Subsequently, cells were pre-incubated with drug in 150 µL uptake buffer for 10 minutes at 37 °C. Taurocholate uptake was initiated by addition of 100 µL uptake buffer containing taurocholate (final concentration 10 µM TC spiked with tritium-labeled TC) and cells were incubated for 2 minutes at 37 °C. Subsequently, cells were washed 4 times with ice-cold PBS and lysed with 0.05% SDS in water. Radioactivity was measured by liquid scintillation counting.

human ASBT = target: T2, human ASBT (Homo sapiens, UniProt Q12908); test: Taurocholate uptake in MDCK-hASBT cells; format: cell-based; conditions: compared with NTCP
T2 construct: expressed in transfected cells; gift of Paul Dawson; induced with sodium butyrate
T2 sequence (Q12908 1-348): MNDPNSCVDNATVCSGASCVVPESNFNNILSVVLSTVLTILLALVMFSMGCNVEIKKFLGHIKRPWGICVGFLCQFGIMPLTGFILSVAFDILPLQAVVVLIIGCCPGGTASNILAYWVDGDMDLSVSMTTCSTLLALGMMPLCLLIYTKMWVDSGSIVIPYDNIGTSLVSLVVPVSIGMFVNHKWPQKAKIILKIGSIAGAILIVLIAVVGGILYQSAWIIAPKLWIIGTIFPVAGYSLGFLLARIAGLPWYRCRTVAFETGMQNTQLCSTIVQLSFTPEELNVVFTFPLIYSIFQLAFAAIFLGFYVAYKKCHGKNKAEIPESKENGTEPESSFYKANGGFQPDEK
Method: as §1, §2, §3

human NTCP [1] = target: T3, human NTCP (Homo sapiens, UniProt Q14973); test: Screening taurocholate uptake assay (96-well, [14C]taurocholate, 10 µM drug)
T3 sequence (Q14973 1-349): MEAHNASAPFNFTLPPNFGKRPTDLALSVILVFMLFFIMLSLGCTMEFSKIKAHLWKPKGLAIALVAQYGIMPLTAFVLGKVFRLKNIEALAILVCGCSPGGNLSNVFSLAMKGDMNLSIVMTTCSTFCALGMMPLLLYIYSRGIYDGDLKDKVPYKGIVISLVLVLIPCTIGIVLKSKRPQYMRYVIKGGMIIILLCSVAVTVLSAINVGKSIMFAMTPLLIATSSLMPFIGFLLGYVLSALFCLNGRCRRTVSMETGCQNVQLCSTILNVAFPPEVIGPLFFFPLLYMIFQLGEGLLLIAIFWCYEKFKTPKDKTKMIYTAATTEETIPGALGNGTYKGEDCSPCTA

in vitro [2] = conditions: human, U2OS-HA-hNTCP cells
human NTCP [3] = target: T3, human NTCP; test: Taurocholate uptake inhibition studies in U2OS-HA-hNTCP cells; format: cell-based; parameters: HA; expressed in transfected cells
Method: as §2, §3

in vitro [4] = conditions: human
[5] = sulfasalazine 1 gram; ref 5 (supplement); cited from earlier work

In the case of O=C(O)c1cc(/N=N/c2ccc(S(=O)(=O)Nc3ccccn3)cc2)ccc1O [Sulfasalazine], the “HDV infection in HepaRG cells (in words)” value (HDV) is reported as “reduced HBV/HDV infection; also recorded: reduce”, the “inhibition of mouse Ntcp-mediated taurocholate uptake compared with human NTCP” value (mouse NTCP) is reported as “inhibited similarly as human NTCP” and the “inhibition of ASBT-mediated taurocholate uptake” value (human ASBT) is reported as “largely ineffective”. The “inhibition of ASBT-mediated taurocholate uptake” value (human ASBT; listed as sulfasalazine) was “Complete absence of ASBT inhibition”, the Ranking score (human NTCP [1]; ranking over the functional and the binding screening assay) was 34.8999 and the B-score functional assay (human NTCP [1]; screening taurocholate uptake, 10 µM drug) was -3.903. For the same compound, the viability at 2 h, 1 µM (in vitro [2]) was 98.1 ± 3%, the viability at 2 h, 10 µM (in vitro [2]) was 90.6 ± 6.9% and the viability at 2 h, 100 µM (in vitro [2]) was 85 ± 9.1%. The “concentration at which NTCP was inhibited in repeated measurements of TC-uptake and Myrcludex B binding” value (human NTCP [3]; U2OS-HA-hNTCP cells, both TC uptake and Myrcludex B binding) was no more than 10 µM, the IC50 (human NTCP [3]; U2OS-HA-hNTCP cells, concentrations 1 nM to 10 mM, read-out: IC50 for hNTCP-mediated TC uptake) was 9.6 µM and the “Taurocholate uptake into U2OS-HA-hNTCP cells (in words)” value (human NTCP [3]; increasing drug concentrations) was “reduced”. The viability at 2 h, 1 µM (in vitro [4]) was 100 ± 6.9%, the viability at 2 h, 10 µM (in vitro [4]) was 101 ± 8.4% and the viability at 2 h, 100 µM (in vitro [4]) was 97.8 ± 8%. The Expected serum concentration [5] was 6 µg/ml and ~15 µM.
